Assays:
Test in all cases: relative viability (nuclei count vs DMSO), 5 days (fraction); higher = more cells survive
201T = tested on: 201T
Outline: (§1)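 The day after seeding in 1536-well plates, lung cancer cell lines were treated by pin tool with a single drug, or with a fixed anchor-drug dose together with five library-drug doses (not always all listed) in √10 steps. After 5 days, a combined fix-and-stain solution (final 0.05% Triton X-100, 1% formaldehyde, 1 ug/ml Hoechst) was added. Nuclei counted on 4× images gave relative viability as treated counts over vehicle counts, reported as the median of duplicate plates.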

EPLC-272H = tested on: EPLC-272H
Outline: as §1

HCC-78 = tested on: HCC-78
Outline: as §1

LCLC-103H = tested on: LCLC-103H
Outline: as §1

LCLC-97TM1 = tested on: LCLC-97TM1
Outline: as §1

LOU-NH91 = tested on: LOU-NH91
Outline: as §1

NCI-H1355 = tested on: NCI-H1355
Outline: as §1

NCI-H1651 = tested on: NCI-H1651
Outline: as §1

NCI-H1734 = tested on: NCI-H1734
Outline: as §1

NCI-H1792 = tested on: NCI-H1792
Outline: as §1

NCI-H1793 = tested on: NCI-H1793
Outline: as §1

NCI-H1915 = conditions: first compound 0.08 µM
Outline: as §1

C=C1C(=O)O[C@@H](CCCCCCCC)[C@@H]1C(=O)O [C-75] + CC(=O)Nc1cccc(-n2c(=O)n(C3CC3)c(=O)c3c(Nc4ccc(I)cc4F)n(C)c(=O)c(C)c32)c1 [Trametinib] (partner 0.02 µM)
relative viability (201T; first compound 0.08 µM): 0.716 | relative viability (201T; first compound 0.253 µM): 0.824 | relative viability (201T; first compound 0.8 µM): 0.731 | relative viability (201T; first compound 2.53 µM): 0.692 | relative viability (201T; first compound 8 µM): 0.763 | relative viability (EPLC-272H; first compound 0.08 µM): 0.311 | relative viability (EPLC-272H; first compound 0.253 µM): 0.341 | relative viability (EPLC-272H; first compound 0.8 µM): 0.27 | relative viability (EPLC-272H; first compound 2.53 µM): 0.299 | relative viability (EPLC-272H; first compound 8 µM): 0.363 | relative viability (HCC-78; first compound 0.08 µM): 0.776 | relative viability (HCC-78; first compound 0.253 µM): 0.935 | relative viability (HCC-78; first compound 0.8 µM): 0.782 | relative viability (HCC-78; first compound 8 µM): 0.62 | relative viability (LCLC-103H; first compound 0.08 µM): 0.64 | relative viability (LCLC-103H; first compound 0.253 µM): 0.703 | relative viability (LCLC-103H; first compound 0.8 µM): 0.624 | relative viability (LCLC-103H; first compound 2.53 µM): 0.547 | relative viability (LCLC-103H; first compound 8 µM): 0.721 | relative viability (LCLC-97TM1; first compound 0.08 µM): 0.211 | relative viability (LCLC-97TM1; first compound 0.253 µM): 0.162 | relative viability (LCLC-97TM1; first compound 0.8 µM): 0.193 | relative viability (LCLC-97TM1; first compound 2.53 µM): 0.175 | relative viability (LCLC-97TM1; first compound 8 µM): 0.177 | relative viability (LOU-NH91; first compound 0.08 µM): 0.802 | relative viability (LOU-NH91; first compound 0.253 µM): 0.712 | relative viability (LOU-NH91; first compound 0.8 µM): 0.762 | relative viability (LOU-NH91; first compound 8 µM): 0.782 | relative viability (NCI-H1355; first compound 0.08 µM): 0.436 | relative viability (NCI-H1355; first compound 0.253 µM): 0.406 | relative viability (NCI-H1355; first compound 0.8 µM): 0.384 | relative viability (NCI-H1355; first compound 2.53 µM): 0.343 | relative viability (NCI-H1355; first compound 8 µM): 0.448 | relative viability (NCI-H1651; first compound 0.08 µM): 0.815 | relative viability (NCI-H1651; first compound 0.253 µM): 0.802 | relative viability (NCI-H1651; first compound 0.8 µM): 0.862 | relative viability (NCI-H1651; first compound 2.53 µM): 0.515 | relative viability (NCI-H1651; first compound 8 µM): 0.892 | relative viability (NCI-H1734; first compound 0.08 µM): 0.664 | relative viability (NCI-H1734; first compound 0.253 µM): 0.78 | relative viability (NCI-H1734; first compound 0.8 µM): 0.664 | relative viability (NCI-H1734; first compound 2.53 µM): 0.524 | relative viability (NCI-H1734; first compound 8 µM): 0.691 | relative viability (NCI-H1792; first compound 0.08 µM): 0.474 | relative viability (NCI-H1792; first compound 0.253 µM): 0.574 | relative viability (NCI-H1792; first compound 0.8 µM): 0.438 | relative viability (NCI-H1792; first compound 2.53 µM): 0.341 | relative viability (NCI-H1792; first compound 8 µM): 0.452 | relative viability (NCI-H1793; first compound 0.08 µM): 0.356 | relative viability (NCI-H1793; first compound 0.253 µM): 0.509 | relative viability (NCI-H1793; first compound 2.53 µM): 0.356 | relative viability (NCI-H1793; first compound 8 µM): 0.409 | relative viability (NCI-H1915): 0.323
